Laboratory results: publication PMC2132544 (The Journal of Cell Biology, 1997)
Read-outs that look alike come from different tables or passages of the source.

Legend:
[1] = tested on: Shigella flexneri intracellular motility in PtK2 cells; details: cited from earlier work
[2] = tested on: Shigella flexneri intracellular motility in PtK2 cells; format: cell-based
[3] = microinjected peptide, ref Zeile et al. (1996)

FEFPPPPTDE [ActA ABM-1 peptide]
effect on Shigella motility [1, 3]: arrested intracellular Shigella motility

Gly-Pro-Pro-Pro-Pro Pro [ABM-2 peptide]
effect on Shigella motility [1, 3]: blocks Shigella actin-based motility

poly- L-proline [poly-L-proline]
effect on Shigella motility ([1]; poly-L-proline intracellular concentration 1 μM, ref Zeile et al., 1996): failed to inhibit motility

B1: full-length vinculin: Full-length 120-kD human platelet vinculin (protein, UniProt P18206 1-1134, looked up)
Vinculin: MPVFHTRTIESILEPVAQQISHLVIMHEEGEVDGKAIPDLTAPVAAVQAAVSNLVRVGKETVQTTEDQILKRDMPPAFIKVENACTKLVQAAQMLQSDPYSVPARDYLIDGSRGILSGTSDLLLTFDEAEVRKIIRVCKGILEYLTVAEVVETMEDLVTYTKNLGPGMTKMAKMIDERQQELTHQEHRVMLVNSMNTVKELLPVLISAMKIFVTTKNSKNQGIEEALKNRNFTVEKMSAEINEIIRVLQLTSWDEDAWASKDTEAMKRALASIDSKLNQAKGWLRDPSASPGDAGEQAIRQILDEAGKVGELCAGKERREILGTCKMLGQMTDQVADLRARGQGSSPVAMQKAQQVSQGLDVLTAKVENAARKLEAMTNSKQSIAKKIDAAQNWLADPNGGPEGEEQIRGALAEARKIAELCDDPKERDDILRSLGEISALTSKLADLRRQGKGDSPEARALAKQVATALQNLQTKTNRAVANSRPAKAAVHLEGKIEQAQRWIDNPTVDDRGVGQAAIRGLVAEGHRLANVMMGPYRQDLLAKCDRVDQLTAQLADLAARGEGESPQARALASQLQDSLKDLKARMQEAMTQEVSDVFSDTTTPIKLLAVAATAPPDAPNREEVFDERAANFENHSGKLGATAEKAAAVGTANKSTVEGIQASVKTARELTPQVVSAARILLRNPGNQAAYEHFETMKNQWIDNVEKMTGLVDEAIDTKSLLDASEEAIKKDLDKCKVAMANIQPQMLVAGATSIARRANRILLVAKREVENSEDPKFREAVKAASDELSKTISPMVMDAKAVAGNISDPGLQKSFLDSGYRILGAVAKVREAFQPQEPDFPPPPPDLEQLRLTDELAPPKPPLPEGEVPPPRPPPPEEKDEEFPEQKAGEVINQPMMMAARQLHDEARKWSSKPGIPAAEVGIGVVAEADAADAAGFPVPPDMEDDYEPELLLMPSNQPVNQPILAAAQSLHREATKWSSKGNDIIAAAKRMALLMAEMSRLVRGGSGTKRALIQCAKDIAKASDEVTRLAKEVAKQCTDKRIRTNLLQVCERIPTISTQLKILSTVKATMLGRTNISDEESEQATEMLVHNAQNLMQSVKETVREAEAASIKIRTDAGFTLRWVRKTPWYQ
effect on bacterial migration speeds ([2]; estimated intracellular 0.12 μM (identical to p90)): failed to cause any significant change | effect on Shigella intracellular motility ([2]; needle concentration 2.2 μM, estimated intracellular concentration 0.22 μM): failed to accelerate
